Test results from patent publication US6037351A, “Method of inhibiting hepatitis B virus” (priority 1996, dated 2000).
pEC50: −log10 of the molar value.

Tests used:
[1] = tested on: HBs proteins; experiment: Western blot of all HBs proteins in virions, filaments and spheres fractions; format: cell-based, HBV; conditions: medium of NBDNJ treated cultures, FIGS. 5B and 5C
Protocol: Polyethylene glycol (PEG) precipitates of culture medium (FIG. 5A) or partly purified virions, HBs filaments and spheres from untreated (FIG. 5B) and NBDNJ treated (FIG. 5C) cultures were resolved by SDS-PAGE (13.5% acrylamide), transferred to immobilin paper and incubated with PreS1 and PreS2 specific monoclonal antibody.
Samples were dissolved in loading buffer, resolved by electrophoresis through 13.5% SDS polyacrylamide gels (SDS-PAGE) and transferred to PVDF (Millipore) membranes and blocked with 5% powdered milk, as in Gultekin and Heerman, Analytical Biochem. 172, 320-329 (1989). After incubation with primary antibody overnight at room temperature in 1% bovine serum albumin (BSA) in TNE and second antibody (peroxidase conjugated goat anti-mouse IgG serum) for 1 hour in TNE at room temperature, membranes were developed in peroxide-diaminobenzidine (Sigma) PBS, as described in the manufacturer's instructions.
The ELISA results were confirmed by Western blot analysis of fractions from the sucrose gradient containing either intact virus, filaments or spheres (FIGS. 5B, from untreated cultures, and 5C, from NBDNJ treated cultures). […]
Fractions distal to the virion containing fractions (near the bottom of the gradient) were resolved in lane 1 to show specificity of the antibody. […] The images shown in FIGS. 5B and 5C) were quantified by densitometry.

[2] = tested on: hepatitis B virus (HBV); experiment: Intracellular HBV DNA in 2.2.15 cells (Southern blot, densitometry); format: cell-based, HBV in human hepatoma HepG 2.2.15 cells; conditions: for increase in intracellular HBV copy abundance: adjusted for loading variation
Protocol: (§1) HepG 2.2.15 cells were grown for 6 days in the presence of the indicated concentration of NBDNJ with one change of medium. After the sixth day (seventh day in culture), cells and medium were collected. Autoradiograms of the viral DNA detected by hybridization of membranes to HBV probes are shown.
FIG. 2B: autoradiogram of a Southern blot of total intracellular DNA, digested to completion with EcoRI, from cells maintained in the absence of NBDNJ (lane 1) and in the presence of the following NBDNJ concentrations:
DNA was prepared from the pellets as in Sells and Chen, Proc. Natl. Acad. Sci. USA 84, 1005-1009 (1987). For Southern blots [Maniatis et al., Molecular cloning, a laboratory manual, Cold Spring Harbor Laboratory, Cold Spring Harbor, N.Y. (1982)], DNA was resolved by electrophoresis through 1.2% agarose, transferred to H+ bond (Amersham) filter paper and hybridized with radioactive ^32 P (Amersham) HBV probe (made by the random priming method described by the kit manufacturer, (Amersham), using pHBV as template [Foster et al., Proc. Natl. Acad. Sci. USA 88, 2888-2892 (1991)].
The NBDNJ-mediated decrease in virion associated HBV DNA in the medium could have been due to a decrease in viral DNA synthesis. Alternatively, it could have been due to a post synthetic event such as virion assembly, transport or egress from the cell. To distinguish between these possibilities, the amount of intracellular HBV specific DNA in untreated and NBDNJ treated 2.2.15 cells was compared.
Total cellular DNA was prepared from treated and untreated cells and digested to completion with EcoRI to linearize viral genomes. Near equal microgram amounts of digestion products (as determined by ethidium bromide staining and hybridization to a cell specific probe) were resolved by electrophoresis, Southern blotted and hybridized with the HBV specific probe (FIG. 2B). Unit length HBV genomes migrating as 3.2 kb bands are detected in DNA derived from untreated 2.2.15 cells (lane 1) and virions isolated from control culture medium (lane 5).

[3] = tested on: α-glucosidase I; conditions: N-linked oligosaccharide processing enzyme; cited from earlier work
[4] = tested on: hepatitis B virus (HBV); experiment: HBV DNA from virions secreted into medium of 2.2.15 cells (Southern blot, densitometry); format: cell-based, HBV in human hepatoma HepG 2.2.15 cells; conditions: six days
Protocol: as §1
FIG. 2A: autoradiogram of a Southern blot of DNA recovered from the medium of 2.2.15 cells maintained in medium without NBDNJ (lanes 1 and 2); and in the following NBDNJ concentrations: 200 μg/ml (lane 3); 500 μg/ml (lane 4); and 1000 μg/ml (lane 5).
HepG2 cells were purchased from the European Collection of Animal Cell Cultures (Porton Down, UK). HepG2 2.15 [2.2.15, Sells and Chen, Proc. Natl. Acad. Sci. USA 84, 1005-1009 (1987)] cells were obtained from Dr. George Acs (Mt. Sinai Medical College, New York, USA).
All tissue cultures were maintained in 5% C02 in RPMI 1640 (GIBCO) medium, supplemented with 10% heat inactivated fetal calf serum (Techgen, London, U.K.), 50 units/ml. of penicillin and streptomycin, 1 mM glutamine (GIBCO). For 2.2.15 cells, 200 μgs/ml. Antibiotic G418 (Genticin, GIBCO) was added to the medium, as in Sells and Chen, Proc. Natl. Acad. Sci. USA 84, 1005-1009 (1987).
Medium from approximately 5×10^6 cells was precipitated with polyethylene glycol (PEG) 8000 (Sigma), after clarification, as in Sells and Chen, Proc. Natl. Acad. Sci. USA 84, 1005-1009 (1987), re-suspended in 0.5 ml. phosphate buffered saline (PBS) and sedimented through a cushion of 20% sucrose in PBS for 5 hours at 50,000 rpm in a Beckman T100.3 rotor (approx. 75,000×g).
DNA was prepared from the pellets as in Sells and Chen, Proc. Natl. Acad. Sci. USA 84, 1005-1009 (1987). […]

[5] = tested on: HIV; conditions: read-out: EC50 for inhibition of HIV replication; cited from earlier work
[6] = tested on: hepatitis B virus (HBV); experiment: Secretion of HBV particles from HepG 2.2.15 and HBV infected HepG2 cells; format: cell-based, HBV in human hepatoma cells
[7] = stably transfected HepG 2.2.15 cells and HBV infected HepG2 cells

CCCCN1C[C@H](O)[C@@H](O)[C@H](O)[C@H]1CO [NBDNJ, N-butyl-1,5-dideoxy-1,5-imino-D-glucitol]
amount of all HBs proteins in virions, filaments and spheres [1]: decrease in the amount of all HBs proteins | increase in intracellular HBV copy abundance ([2]; NBDNJ 200 μg/ml): 1.7 fold | increase in intracellular HBV copy abundance ([2]; NBDNJ 500 μg/ml): 3.0 fold | increase in intracellular HBV copy abundance ([2]; NBDNJ 1000 μg/ml): 5.1 fold | amount of intracellular HBV DNA (in words) ([2]; NBDNJ 200, 500, 1000 μg/ml): clear dose-dependent increase | inhibition of α-glucosidase I (in words) [3]: potent inhibitor | inhibition at 500 µg/mL ([4]; Hepatitis B virus, 144 h, NBDNJ 500 μg/ml (2.28 mM), densitometry of FIG. 2A, read-out: decrease in virus specific DNA in medium): 90% | inhibition at 1000 µg/mL ([4]; Hepatitis B virus, 144 h, NBDNJ 1000 μg/ml, densitometry of FIG. 2A, read-out: decrease in virus specific DNA in medium): 99% | virus specific DNA obtained from the media of treated cells (in words) ([4]; NBDNJ 200, 500, 1000 μg/ml): clear dose-dependent decrease | pEC50 [5]: 4.37 | sensitivity of HBV virions and particles containing LHBs and MHBs vs SHBs enriched particles ([6]; relative to small SHBs enriched particles): more sensitive | intracellular retention of HBV DNA (in words) [6, 7]: cause intracellular retention of HBV DNA | secretion of HBV particles (in words) [6, 7]: suppress the secretion of HBV particles
